Test system: not listed separately
Test: Polarity: interfacial tension toward water;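 also: polarity expressed as oil–water interfacial tension in mN/m, lower values meaning a more polar oil, with medium-polar lipids falling between 20 and 30 mN/m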
Type: physicochemical
Conditions: medium-polar lipids
Excerpt: For the purposes of the present invention, lipids are regarded as being polar if their interfacial tension toward water is less than 20 mN/m, and as nonpolar if their interfacial tension toward water is more than 30 mN/m. Lipids with an interfacial tension toward water between 20 and 30 mN/m are generally referred to as medium-polar.

Row | Compound | Polarity [mN/m]
1 | CCCCCCCCCCCCCCCC(=O)OCCCCCCCC [Cegesoft C24, Octyl Palmitate] | 23.1
2 | CC(C)CCCCCCCOC(=O)CC(C)CC(C)(C)C (stereo not drawn) [Dermol 109, Isodecyl 3,5,5 Trimethyl Hexanoate] | 29.1
3 | CCCCCCCCCCC(CO)CCCCCCCC (stereo not drawn) [Eutanol G, Octyldodecanol] | 24.8
4 | CCCCCCC(CCCC)C(=O)O (stereo not drawn) [Isocarb 12, Butyl Octanoic acid] | 22.1

Further lines, results first:

Row | Polarity [mN/m] | Compound
5 | 29.9 | CC(C)CCCCCCCOC(=O)C(C)(C)C [DUB VCI 10, Isodecyl Neopentanoate]
6 | 26.2 | CCCCC(CC)C(=O)OCCC(C)CC(C)(C)C (stereo not drawn) [Dermol 98, 2-Ethylhexanoic acid 3,5,5-Trimethyl ester]
7 | 29.6 | CCCCCCCC(=O)OCCCCCCCC(C)C [Dermol 108, Isodecyl Octanoate]
8 | 29.7 | CCCCCCCCCC(=O)OCCCC(C)C [Dermol IHD, Isohexyl decanoate]
9 | 29.2 | CCCCCCOCCCCCC [Dihexyl Ether]
10 | 21.9 | CCCCCCCCCCCCCCCCCC(=O)OC(C)C [Isopropyl stearate, Isopropyl Stearate]
11 | 22.1 | CCCCCCCCCCCCCC(=O)OCC(CCCCCCCC)CCCCCCCCCC (stereo not drawn) [M.O.D., Octyldodecyl Myristate]
12 | 20.2 | CCCCCCCC(=O)OCC(COC(=O)CCCCCCC)OC(=O)CCCCCCC [Trivent OCG, Tricaprylin]
13 | 24.5 | Isotridecyl 3,5,5 Trimethylhexanonanoate [Dermol 139]

Same assay, conditions: nonpolar lipids

Row | Compound | Polarity [mN/m]
14 | CCCCCCCC(=O)OC(=O)CCCCCCC [Cetiol OE, Dicaprylyl Ether] | 30.9
15 | O1[SiH2]O[SiH2]O[SiH2]O[SiH2]O[SiH2]1 (stereo not drawn) [Dow Corning Fluid 245, Cyclopentasiloxane] | 32.3
16 | Dioctylcyclohexane [Cetiol S] | 39.0

More lines, now with the values ahead:

Row | Polarity [mN/m] | Compound
17 | 31.0 | CCCCC(CC)COC(=O)CCCCCC(C)C (stereo not drawn) [Dermol 89, 2-Ethylhexyl Isononanoate]
18 | 31.1 | CC(CCOC(=O)CC(C)CC(C)(C)C)CC(C)(C)C (stereo not drawn) [Dermol 99, Trimethylhexyl Isononanoate]
19 | 30.9 | CCCCCCOC(=O)OCCCCCC [Dihexyl carbonate, Dihexyl Carbonate]
20 | 41.9 | CCCCCCCCCCCCCCCCCC(C)C [Isoeicosane]
21 | 31.6 | CCCCCCCCOC(=O)CCCCCCCCCCCCCCC(C)C [Prisorine 2036, Octyl Isostearate]
22 | 40.5 | CCCCCCCC/C=C\CCCCCCCC(=O)OCCOCCOCC [Softcutol O, Ethoxydiglycol Oleate]
23 | 43.8 | CCCCCCCCCCCCCC(C)C [Solvent ICH, Isohexadecane]
24 | 36.2 | Isocetyl Palmitate [Tegosoft HP]

Same assay, conditions: polar lipids

Row | Compound | Polarity [mN/m]
25 | CCCCOC(=O)CCCCC(=O)OCCCC [Cetiol B, Dibutyl Adipate] | 14.3
26 | PEG 2 Diethylene hexanoate [Dermol 488] | 10.1

Next, values leading:

Row | Polarity [mN/m] | Compound
27 | 6.2 | CC(C)CCCCCCCCCCCCCCC(=O)O.CC(O)CO [Emerest 2384, Propylene Glycol Monoisostearate]
28 | 17.8 | CCCCCCCCCCCCCCCCCCOC(=O)CCCCCC [Tegosoft SH, Stearyl Heptanoate]
29 | 2.4 | Triisostearin [Prisorine 2041 GTIS]

Same assay, conditions: silicone oils

Row | Compound | Polarity [mN/m]
30 | O1[SiH2]O[SiH2]O[SiH2]O[SiH2]O[SiH2]1 (stereo not drawn) [Dow Corning Fluid 245, Cyclopentasiloxane] | 32.3

Test system: insects
Test: not given
Conditions: cited from earlier work

Row | Compound | effective against (pests repelled)
31 | CCN(CC)C(=O)c1cccc(C)c1 [DEET, N,N-diethyl-3-methylbenzamide] | mosquitoes, horse-flies, sand-flies, ticks, biting flies, mites, fleas and bugs
32 | COC(=O)c1ccccc1C(=O)OC [Dimethyl phthalate] | mosquitoes (in particular Aedes and Anopheles species)
33 | CCCCN(CCC(=O)OCC)C(C)=O [Repellent 3535, ethyl 3-(N-n-butyl-N-acetylamino)propionate] | mosquitoes (Aedes aegypti, Anopheles albimanus), tsetse flies (Glossinae) and horse-flies (Tabanidae)

Same assay, conditions: pests repelled, table of further repellents; cited from earlier work

Row | Compound | Effectiveness (literature and manufacturer details)
34 | O=CC12CC=CCC1C1CC=CCC1O2 (stereo not drawn) [2,3;4,5-bis(2-Butylene)tetrahydro-2-furaldehyde] | cockroaches and biting insects^1
35 | CCCC(O)C(CC)CO (stereo not drawn) [2-Ethylhexane-1,3-diol] | mosquitoes, horse-flies, flies, fleas, mites^1
36 | COC(=O)C1C2C=CC(C2)C1C(=O)OC (stereo not drawn) [Dimethyl carbate] | mosquitoes, in particular of the Aedes species^1
37 | CCCCCCCC(=O)N(CC)CC [N,N-Diethyl caprylamide] | cockroaches, mosquitoes, house files, horse-flies, ants, arachnids
38 | CCCCC(CC)CN1C(=O)C2C3C=CC(C3)C2C1=O (stereo not drawn) [N-Octylbicycloheptenedicarboximide] | synergist^2
39 | CCCCOCCOCCOCc1cc2c(cc1CCC)OCO2 [Piperonyl butoxide] | synergist^2
